Patent US20220184222A1, “BICYCLE TOXIN CONJUGATES AND USES THEREOF” (BicycleTx Limited, priority 2019, published 2022)
Starred links: 1 amine or outer side, 2 acyl side, 3 side chain; linkers in the order of their positions; H or OH if unused. Non-standard residues stand in square brackets, D forms with d. Residues, ends and D or L forms follow the SMILES beside them. *: point of attachment. Dolaproine = CO[C@@H]([C@@H]1CCCN1)[C@@H](C)C(=O)O; Dil = CC[C@H](C)[C@H](NC)[C@@H](CC(=O)O)OC; PABC = O=C(OCc1ccc(N[*:1])cc1)[*:2]; X1 = O=C(CCCC(=O)*)ON1C(=O)CCC1=O; X2 = C[C@@H](N*)[C@@H](O)c1ccccc1; Cit = NC(=O)NCCC[C@H](N)C(=O)O; NMeV = CN[C@H](C(=O)O)C(C)C

Tests used:
Panc033 = assay: PDAC PDX Panc033 xenograft efficacy (Example 5); assay type: in vivo, NSG mice; details: 3 mg/kg intravenously weekly, 4-week treatment period
Protocol: BT5528 and Vehicle were prepared as described in the examples above, and tested in treatment of Pancreatic Ductal Adenocarcinoma (PDAC) in PDX models. PDX models effectively capture patient responses to oncology therapy in a heterogeneous cohort of patients with solid tumors with 80-100% correlation between the PDX and patient response (Izumchenko et al. 2017)
Pancreatic ductal adenocarcinoma patient derived xenograft tumors (PDAC PDX; Panc033 and Panc163) were implanted subcutaneously from source tumors into the flank of NSG mice. Tumor bearing animals were randomized to receive intravenously a weekly dosing of vehicle or 3 mg/kg BT5528. Tumor sizes were monitored by caliper measurements.

CTG-0160 = assay: Champions TumorGraft NSCLC PDX efficacy, model CTG-0160; assay type: in vivo, Mus musculus
Protocol: Mice were implanted subcutaneously into the left flank with tumor fragments from one of the various models. After tumors grew to an average of 150-300 mm^3, mice were treated by IV administration Q7Dx4 (n=2) with vehicle or 3 mg/kg of BT5528. Effects on tumor growth were evaluated by measuring percent tumor growth inhibition (% TGI), and the number of complete responders (CR), partial responders (PR), and tumor-free survivors (TFS). Tolerability was assessed by body weight loss, lethality, and clinical signs of adverse treatment-related side effects. Tumor volumes and body weights were measured twice a week.
(§1) Dosing solutions of BT5528 […] were pre-formulated. These dosing solutions were stored at −80° C. in the dark. On each day of dosing, a frozen aliquot of each test agent was thawed, stored at 2-8° C. and used for dosing.
(§2) The animals used in this study are described below: • Species: Mus musculus • Strain: Athymic Nude-Foxn1^nu (immune-compromised) • Source: Envigo (Indianapolis, Ind., USA) • Number of animals per group: 2 • Age and sex: At least 6-8 weeks of age at start of dosing, female • Weight: At least 18 grams at start of dosing • Acclimation period: 3 days
(§3) Stock mice were implanted with tumor cells from Champions TumorGraft® models CTG-0160, CTG-0170, CTG-0178, CTG-0192, CTG-0363, CTG-0808, CTG-0838, CTG-0848, CTG-1212, CTG-1502, CTG-1535, CTG-2011, CTG-2393, CTG-2539 or CTG-2540. After the tumors reached 1000-1500 mm^3, they were harvested and the tumor fragments (approximately 5×5×5 mm^3) were implanted SC in the left flank of the female study mice. Each animal was implanted with a specific passage lot and documented. Tumor growth was monitored twice a week using digital calipers and the tumor volume (TV) was calculated using the formula (0.52×[length×width^2]). When the TV reached an average volume of 150-300 mm^3, animals were matched by tumor size and assigned into Vehicle Control and treatment groups (n=2/group) and dosing was initiated on Day 0. After the initiation of dosing on Day 0, animals were weighed twice per week using a digital scale and TV was measured twice per week and also on the final day of study. The study was completed when the mean tumor volume of Vehicle Control reached 1500 mm^3 or up to Day 60, whichever occurred first.
(§4) Beginning on Day 0, animals were observed daily and weighed twice weekly using a digital scale; data including individual and mean gram weights, mean percent weight change versus Day 0 (% vD0) were recorded for each group and % vD0 plotted at study completion. […] Treatment resulting in a mean % vD0>20% and/or >10% mortality was considered above the maximum tolerated dose. Maximum mean % vD0 (weight nadir) for each treatment group was reported at study completion.
(§5) Inhibition of tumor growth was determined by calculating the percent TGI (100%×[1−(final MTV−initial MTV of a treated group)/(final MTV−initial MTV of the control group)]). Treatment started on Day 0.
(§6) Additional endpoints used to evaluate efficacy were: the number of complete responders (CR), partial responders (PR), and tumor-free survivors (TFS). PRs were considered exclusive of CRs, as were TFS.
(§7) Statistical analyses of anti-tumor efficacy were performed using one-way ANOVA followed by Dunnett's multiple comparisons test (GraphPad Prism version 8.2.0). Significant p-values=<0.05.
Animals were dosed according to the schedule on Table 7-1. The Vehicle Control group reached endpoint of average tumor volume >1500 mm^3 on Day 21 and was removed from the study. The study was terminated on Day 28. Therefore, the tumor volumes on Day 21 were used for analysis of anti-tumor activity.

CTG-0192 = assay: Champions TumorGraft NSCLC PDX efficacy, model CTG-0192; assay type: in vivo, Mus musculus
Protocol: (§8) Mice were implanted subcutaneously into the left flank with tumor fragments from one of the various models. […] Effects on tumor growth were evaluated by measuring percent tumor growth inhibition (% TGI), and the number of complete responders (CR), partial responders (PR), and tumor-free survivors (TFS). Tolerability was assessed by body weight loss, lethality, and clinical signs of adverse treatment-related side effects. Tumor volumes and body weights were measured twice a week.
as §1, §2, §3, §4, §5, §6, §7
Animals were dosed according to the schedule on Table 7-1. The study was terminated on Day 34.

CTG-1535 = assay: Champions TumorGraft NSCLC PDX efficacy, model CTG-1535; assay type: in vivo, Mus musculus
Protocol: as §8, §1, §2, §3, §4, §5, §6, §7
Animals were dosed according to the schedule on Table 7-1. The study was terminated on Day 35.

[1] = CTG-0160, 3 mg/kg IV Q7Dx4, Day 0-28
[2] = CTG-0192, 3 mg/kg IV Q7Dx5, Day 0-34
[3] = CTG-1535, 3 mg/kg IV Q7Dx5, Day 0-35

## CC[C@H](C)[C@@H]([C@@H](CC(=O)N1CCC[C@H]1[C@H](OC)[C@@H](C)C(=O)N[C@H](C)[C@@H](O)c1ccccc1)OC)N(C)C(=O)[C@@H](NC(=O)[C@H](C(C)C)N(C)C(=O)OCc1ccc(NC(=O)[C@H](CCCNC(N)=O)NC(=O)[C@@H](NC(=O)CCCC(=O)ON2C(=O)CCC2=O)C(C)C)cc1)C(C)C [BT5528] (X1-V[Cit][PABC][NMeV]V[Dil][Dolaproine]-X2)
Panc033
  anti-tumor activity (tumor size by caliper): significant anti-tumor activity from reduced tumor growth rate to decreasing tumor volumes
CTG-0160; 3 mg/kg IV Q7Dx4, Day 21
  MTV (mean tumor volume): 400±187 mm^3
  TGI: 87%
CTG-0160; [1]
  # CR (complete responders): 0/0/0
  # PR (partial responders): 0/0/0
  # TFS (tumor-free survivors): 0/0/0
CTG-0160; CTG-0160, 3 mg/kg IV Q7Dx4, Day 21
  % TGI: 87%
CTG-0160; CTG-0160, BT5528 3 mg/kg IV Q7Dx4, Day 21, n=2
  Day 21 Tumor Volume Mean TV ± SEM: 400 ± 187 mm^3
CTG-0192; 3 mg/kg IV Q7Dx5, Day 7
  maximum mean body weight loss: 2.3%
CTG-0192; 3 mg/kg IV Q7Dx5, Day 34
  MTV (mean tumor volume): 740±386 mm^3
  TGI: 36%
CTG-0192; [2]
  # CR (complete responders): 0/0/0
  # PR (partial responders): 0/0/0
  # TFS (tumor-free survivors): 0/0/0
CTG-0192; CTG-0192, 3 mg/kg IV Q7Dx5, Day 34
  % TGI: 36%
CTG-0192; CTG-0192, BT5528 3 mg/kg IV Q7Dx5, Day 34, n=2
  Day 34 Tumor Volume Mean TV ± SEM: 740 ± 386 mm^3
CTG-1535; 3 mg/kg IV Q7Dx5, Day 35
  MTV (mean tumor volume): 307±91 mm^3
  TGI: 85%
CTG-1535; [3]
  # CR (complete responders): 0/0/0
  # PR (partial responders): 0/0/0
  # TFS (tumor-free survivors): 0/0/0
CTG-1535; CTG-1535, 3 mg/kg IV Q7Dx5, Day 35
  % TGI: 85%
CTG-1535; CTG-1535, BT5528 3 mg/kg IV Q7Dx5, Day 35, n=2
  Day 35 Tumor Volume Mean TV ± SEM: 307 ± 91 mm^3
